Measured values taken from patent US20050004134A1, “Thiazole derivative and pharmaceutical use thereof” (priority 2001, published 2005).

How the values were obtained:
human A2a receptor = human A2a receptor (Homo sapiens, UniProt P29274); assay: Adenosine antagonistic activity, radioligand binding with [3H]CGS 21680; details: [3H]CGS 21680, 20 nM
Description: (§1) Test 1: Adenosine Antagonistic Activity
(§2) The adenosine antagonistic activity [Ki(nM)] of the test compound was examined by radioligand binding techniques using 8-cyclopentyl-1,3-dipropylxanthine, [dipropyl-2,3^−3H(N)] ([3H]DPCPX, 4.5 nM) for human A1 receptor and [3H]CGS 21680 (20 nM) for human A2a receptor.

human A1 receptor = molecular target: T1, human A1 receptor (Homo sapiens, UniProt P30542); assay: Adenosine antagonistic activity, radioligand binding with [3H]DPCPX; details: 4.5 nM
T1 sequence (P30542 1-326): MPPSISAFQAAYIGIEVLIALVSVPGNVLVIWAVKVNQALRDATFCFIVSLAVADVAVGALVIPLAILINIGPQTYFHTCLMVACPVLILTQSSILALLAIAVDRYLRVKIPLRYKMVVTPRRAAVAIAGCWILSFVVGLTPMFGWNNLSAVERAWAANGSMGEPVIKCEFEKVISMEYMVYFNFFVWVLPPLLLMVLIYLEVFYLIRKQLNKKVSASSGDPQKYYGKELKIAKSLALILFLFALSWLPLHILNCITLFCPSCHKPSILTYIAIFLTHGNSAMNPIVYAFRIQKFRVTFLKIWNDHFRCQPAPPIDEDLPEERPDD
Description: as §1, §2

ddY mice = assay: Anticatalepsy activity in mouse (haloperidol-induced catalepsy); format: in vivo; details: 3.2 mg/kg orally, ddY mice (n=7); haloperidol 0.32 mg/kg i.p. 30 min after compound; measured 30 min after injection, bar test up to 30 sec
Description: Test 2: Anticatalepsy Activity in Mouse
The test compound (3.2 mg/kg) was administered orally with ddY mice(n=7). Then, haloperidol (0.32 mg/kg) was injected intraperitoneally 30 min. after the administration of the compound. Thirty minutes after the injection, the cataleptic responses of mice were measured. The forelimbs of each mouse were placed on a 3 cm high, 3 mm wide horizontal bar, and the duration of cataleptic posture was measured for up to 30 sec.

human A2a receptor, sequence (P29274 whole entry): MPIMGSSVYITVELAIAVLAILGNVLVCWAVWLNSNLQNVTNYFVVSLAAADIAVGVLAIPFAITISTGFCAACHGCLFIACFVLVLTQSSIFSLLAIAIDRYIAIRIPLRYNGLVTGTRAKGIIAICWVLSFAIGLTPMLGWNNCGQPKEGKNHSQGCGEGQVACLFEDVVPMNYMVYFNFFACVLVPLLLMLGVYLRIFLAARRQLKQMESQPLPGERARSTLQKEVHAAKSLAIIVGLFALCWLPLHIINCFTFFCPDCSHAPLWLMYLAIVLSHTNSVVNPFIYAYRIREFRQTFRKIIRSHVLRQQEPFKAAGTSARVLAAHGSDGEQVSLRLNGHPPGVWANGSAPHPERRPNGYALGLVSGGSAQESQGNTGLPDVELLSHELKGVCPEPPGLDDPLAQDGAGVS

Ki (human A2a receptor) [nM]	Ki (human A1 receptor) [nM]	melting point [°C]	SMILES	Manifestation rate of catalepsy (number of mouse) (ddY mice)
1.22	0.61	187 to 188	CC(C)n1nc(-c2sc(NC(=O)CNCc3ccncc3)nc2-c2ccccc2)ccc1=O [Example 100, N-[5-(1-isopropyl-6-oxo-1,6-dihydro-3-pyridazinyl)-4-phenyl-1,3-thiazol-2-yl]-2-[(4-pyridinylmethyl)amino]acetamide]	0/7
1.52	1.14	172 to 174	CCNC(=O)c1nc(-c2ccccc2)c(-c2ccc(=O)n(C(C)C)n2)s1 [Example 214, N-ethyl-5-(1-isopropyl-6-oxo-1,6-dihydro-3-pyridazinyl)-4-phenyl-1,3-thiazole-2-carboxamide]	0/7
1.14	1.03	192 to 193	CC(C)n1nc(-c2sc(C(=O)NCc3ccncc3)nc2-c2ccccc2)ccc1=O [Example 233, 5-(1-Isopropyl-6-oxo-1,6-dihydro-3-pyridazinyl)-4-phenyl-N-(4-pyridinylmethyl)-1,3-thiazole-2-carboxamide]	0/7
–	–	144 to 147	CC(C)n1nc(-c2sc(C(=O)NCCc3ccccn3)nc2-c2ccccc2)ccc1=O [Example 234, 5-(1-Isopropyl-6-oxo-1,6-dihydro-3-pyridazinyl)-4-phenyl-N-[2-(2-pyridinyl)ethyl]-1,3-thiazole-2-carboxamide]	–
–	–	155 to 157	CC(C)n1nc(-c2sc(C(=O)NCc3ccncc3)nc2-c2ccc(F)cc2)ccc1=O [Example 236, 4-(4-Fluorophenyl)-5-(1-isopropyl-6-oxo-1,6-dihydro-3-pyridazinyl)-N-(4-pyridinylmethyl)-1,3-thiazole-2-carboxamide]	–
–	–	144 to 145	CC(C)n1nc(-c2sc(C(=O)NCCc3ccccn3)nc2-c2ccc(F)cc2)ccc1=O [Example 237, 4-(4-Fluorophenyl)-5-(1-isopropyl-6-oxo-1,6-dihydro-3-pyridazinyl)-N-[2-(2-pyridinyl)ethyl]-1,3-thiazole-2-carboxamide]	–

The remaining lines, values behind:

SMILES	Ki (human A2a receptor) [nM]	Ki (human A1 receptor) [nM]	melting point [°C]	Manifestation rate of catalepsy (number of mouse) (ddY mice)
CCCCCC(=O)Nc1nc(-c2ccccc2)c(-c2ccc(=O)n(C(C)C)n2)s1 [Example 3, N-[5-(1-Isopropyl-6-oxo-1,6-dihydro-3-pyridazinyl)-4-phenyl-1,3-thiazol-2-yl]hexanamide]	1.46	0.27	129 to 132	0/7
COc1ccc(CC(=O)Nc2nc(-c3ccccc3)c(-c3ccc(=O)n(C(C)C)n3)s2)cc1 [Example 9, N-[5-(1-Isopropyl-6-oxo-1,6-dihydro-3-pyridazinyl)-4-phenyl-1,3-thiazol-2-yl]-2-(4-methoxyphenyl)acetamide]	1.22	0.28	188 to 190	0/7
Cc1cccc(NC(=O)Nc2nc(-c3ccccc3)c(-c3ccc(=O)n(C(C)C)n3)s2)c1 [Example 10, N-[5-(1-Isopropyl-6-oxo-1,6-dihydro-3-pyridazinyl)-4-phenyl-1,3-thiazol-2-yl]-N′-(3-methylphenyl)urea]	3.08	0.38	242 to 243	–
CNc1nc(-c2ccccc2)c(-c2ccc(=O)n(C(C)C)n2)s1 [Example 15, 2-Isopropyl-6-[2-(methylamino)-4-phenyl-1,3-thiazol-5-yl]-3(2H)-pyridazinone]	1.63	0.12	234 to 236	0/7
CC(C)n1nc(-c2sc(NC(=O)c3ccccc3)nc2-c2ccc(F)cc2)ccc1=O [Example 78, N-[4-(4-Fluorophenyl)-5-(1-isopropyl-6-oxo-1,6-dihydro-3-pyridazinyl)-1,3-thiazol-2-yl]-benzamide]	1.23	0.45	228 to 230	0/7
CC(C)n1nc(-c2sc(C(=O)N3CCN(C)CC3)nc2-c2ccccc2)ccc1=O [Example 228, 2-Isopropyl-6-{2-[(4-methyl-1-piperazinyl)carbonyl]-4-phenyl-1,3-thiazol-5-yl)-3(2H)-pyridazinone]	–	–	155 to 156.5	–
CC(C)n1nc(-c2sc(C(=O)N3CCN(Cc4ccccc4)CC3)nc2-c2ccccc2)ccc1=O [Example 229, 6-{2-[(4-Benzyl-1-piperazinyl)carbonyl]-4-phenyl-1,3-thiazol-5-yl}-2-isopropyl-3(2H)-pyridazinone]	–	–	181 to 182	–
CC(C)n1nc(-c2sc(C(=O)N3CCN(c4ccccc4)CC3)nc2-c2ccccc2)ccc1=O [Example 231, 2-isopropyl-6-(4-phenyl-2-[(4-phenyl-1-piperazinyl)carbonyl]-1,3-thiazol-5-yl}-3(2H)-pyridazinone]	–	–	163.5 to 165	–
CONC(=O)c1nc(-c2ccc(F)cc2)c(-c2ccc(=O)n(C(C)C)n2)s1 [Example 238, 4-(4-fluorophenyl)-5-(1-isopropyl-6-oxo-1,6-dihydro-3-pyridazinyl)-N-methoxy-1,3-thiazole-2-carboxamide]	–	–	164.5 to 166.5	–
CC(C)n1nc(-c2sc(C(=O)NN(C)C)nc2-c2ccc(F)cc2)ccc1=O [Example 239, 4-(4-Fluorophenyl)-5-(1-isopropyl-6-oxo-1,6-dihydro-3-pyridazinyl)-N′,N′-dimethyl-1,3-thiazole-2-carbohydrazide]	–	–	169 to 170.5	–
CC(C)n1nc(-c2sc(C(N)=S)nc2-c2ccccc2)ccc1=O [Example 240, 5-(1-isopropyl-6-oxo-1,6-dihydro-3-pyridazinyl)-4-phenyl-1,3-thiazole-2-carbothioamide]	–	–	> 250	–
